Measured values reported in patent US5116818A, “Method and kit for contraception with GnRH-antagonist” (Medical College of Hampton Roads, priority 1990, dated 1992).

Tested on: cynomolgus monkeys (Macaca fascicularis)
Assay: Study III: once-weekly Nal-Glu GnRH-antagonist plus 12 days of norgestimate, three treatment cycles
Type: in vivo
Protocol: STUDY III. In this study, which is reported in more detail in Contraception, June, 1990, Vol. 31, No. 6, pp. 623-631, six regularly cycling adult female cynomolgus monkeys (Macaca fascicularis) were housed in individual cages in a controlled environment and checked daily for menstrual flow. Each primate underwent a study entry control menstrual cycle in which alternate day blood samples were taken (under ketamine anesthesia, 10 mg/kg, im) to verify maturation of the dominant follicle, presumed ovulation, and corpus luteum function. The experimental design is depicted in FIG. 1. On menstrual cycle days 2, 9, 16, and 23 (onset of menses =Day 1) three of the monkeys were injected sc with 0.1 mg/kg GnRH-antagonist ([Ac-D2 Nal^1, 4ClDPhe^2, D3 Pal^3, Arg^5,DGlu^6 (AA), DAla^10 ]- GnRH; Nal-Glu) in saline. This dose was selected based on dose-response findings reported in Fertil Seril 1987; 48:480-485. On cycle days 15 to 26, each female was administered 25 μg norgestimate/day orally. This treatment regimen (once-weekly GnRH-antagonist plus 12 days of progestin) was repeated for 2 additional cycles (84 days total). Two of the treated monkeys were ovariectomized at the end of the third treatment cycle to evaluate ovarian follicular morphology. […] Three control monkeys received saline injections and blank (progestin placebo) capsules according to the same regimen. Serum samples were assayed by RIA for estradiol, progesterone, LH, and FSH.

## [Ac-D2 Nal^1, 4ClDPhe^2, D3 Pal^3, Arg^5,DGlu^6 (AA), DAla^10 ]- GnRH [Nal-Glu]
0.1 mg/kg sc on cycle days 2, 9, 16, 23, judged by serum LH, E2 and P levels
  completion of follicular maturation, ovulation and corpus luteum function: effectively blocked
During the intermittent regimen
  LH surges or serum progesterone rises: NO LH surges or serum progesterone rises were detected
During the treatment cycles
  serum progesterone: < 0.1 ng/mL

## C#C[C@]1(OC(C)=O)CC[C@H]2[C@@H]3CCC4=CC(=NO)CC[C@@H]4[C@H]3CC[C@@]21CC (mixture of isomers) [norgestimate]
Sequential norgestimate, histological sections on day 26
  transformation of endometrium: effectively transformed proliferative to secretory endometrium
